Experiments:
Assay type in all cases: in vivo
[1] = system: Echinochloa crus-galli var. formosensis; assay: Test Example 1: herbicidal effect test by soil application in paddy rice; conditions: Echinochloa crus-galli, soil, 336 h; 120 g active ingredient per 10 ares; applied immediately after sowing, flooded pots; 14 days after application; read-out: weed inhibition rate
Method in brief: (§1)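 Paddy soil in Wagner pots (1/10,000 acre), fertilized and puddled; 30 seeds per species sown at 0–1 cm, flooded to ~3 cm, greenhouse. Water-diluted emulsifiable concentrate dropped onto flooded pots right after sowing at 120 g active ingredient per 10 ares.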

Scirpus juncoides [2] = assay: as above; conditions: Schoenoplectiella juncoides, soil, 336 h; 120 g active ingredient per 10 ares; applied immediately after sowing, flooded pots; 14 days after application; read-out: weed inhibition rate
Method in brief: as §1

[3] = system: Echinochloa crus-galli var. formosensis; assay: Test Example 6: herbicidal effect test by application during growth period of paddy rice (low dose); conditions: Echinochloa crus-galli; 7.5 g per 10 ares; applied seven days after sowing, flooded pots; 14 days after application; read-out: weed inhibition rate
Method in brief: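 Paddy soil in flooded Wagner pots (about 3 cm water), weeds sown at 0–1 cm, 30 seeds each, grown in a glass greenhouse. Seven days after sowing, water-diluted emulsifiable concentrate was dropped into the water at 7.5 g active ingredient per 10 ares. Weed inhibition rate (%) was scored 14 days after application, in duplicate.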

Echinochloa crus-galli [4] = assay: Test Example 8: herbicidal effect test by stem and leaf treatment in upland field (low dose); conditions: Echinochloa crus-galli; 7.5 g per 10 ares; sprayed seven days after sowing, upland soil; 14 days after application; read-out: weed inhibition rate
Digitaria ciliaris [5] = assay: as above; conditions: Digitaria ciliaris; 7.5 g per 10 ares; sprayed seven days after sowing, upland soil; 14 days after application; read-out: weed inhibition rate
Digitaria ciliaris [6] = assay: Test Example 4: herbicidal effect test by stem and leaf treatment in upland field; conditions: Digitaria ciliaris; 120 g per 10 ares; sprayed seven days after sowing, upland soil; 14 days after application; read-out: weed inhibition rate
Echinochloa crus-galli [7] = assay: Test Example 7: herbicidal effect test by soil application in upland field (low dose); conditions: Echinochloa crus-galli, 7.5 g per 10 ares, sprayed one day after sowing, 14 days after application, read-out: weed inhibition rate
Method in brief: (§2)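 Pre-emergence soil application: upland alluvial loam pots sown with weed seeds mixed into the top 1 cm; one day after sowing, a water-diluted emulsifiable concentrate was sprayed on the soil at 100 L per 10 a, delivering 7.5 g active ingredient per 10 a. Weed inhibition rate (%) scored 14 days after application, duplicate pots.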

Digitaria ciliaris [8] = assay: as above; conditions: Digitaria ciliaris, 7.5 g per 10 ares, sprayed one day after sowing, 14 days after application, read-out: weed inhibition rate
Method in brief: as §2

Echinochloa crus-galli [9] = assay: Test Example 3: herbicidal effect test by soil application in upland field; conditions: Echinochloa crus-galli, 120 g per 10 ares, sprayed one day after sowing, 14 days after application, read-out: weed inhibition rate
Method in brief: (§3)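 Pre-emergence test: seeds mixed into top 1 cm of alluvial loam upland soil in pots; emulsifiable concentrate diluted in water sprayed on soil one day after sowing at 100 L/10 a, 120 g a.i./10 a. Weed inhibition rate (%) scored at 14 days, in duplicate.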

Digitaria ciliaris [10] = assay: as above; conditions: Digitaria ciliaris, 120 g per 10 ares, sprayed one day after sowing, 14 days after application, read-out: weed inhibition rate
Method in brief: as §3

[11] = system: Echinochloa crus-galli var. formosensis; assay: Test Example 2: herbicidal effect test by application during growth period of paddy rice; conditions: Echinochloa crus-galli; 120 g per 10 ares; applied seven days after sowing, flooded pots; 14 days after application; read-out: weed inhibition rate
Method in brief: (§4)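 Paddy soil in Wagner pots was puddled with N:P:K 16:16:16 fertilizer, sown with 30 weed seeds per species at 0–1 cm and flooded to about 3 cm. Seven days after sowing, a water-diluted emulsifiable concentrate was dropped onto the water at 120 g active ingredient per 10 ares. Weed inhibition (%) was scored at 14 days, in duplicate.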

Scirpus juncoides [12] = assay: as above; conditions: Schoenoplectiella juncoides; 120 g per 10 ares; applied seven days after sowing, flooded pots; 14 days after application; read-out: weed inhibition rate
Method in brief: as §4

[13] = system: Echinochloa crus-galli var. formosensis; assay: Test Example 5: herbicidal effect test by soil application in paddy rice (low dose); conditions: Echinochloa crus-galli, soil, 336 h; 7.5 g per 10 ares; applied immediately after sowing, flooded pots; 14 days after application; read-out: weed inhibition rate
Method in brief: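 Paddy soil in Wagner pots was fertilized (N:P:K 16:16:16), puddled, sown with 30 seeds per weed species at 0–1 cm, then flooded to ~3 cm in a glass greenhouse. Emulsifiable concentrate diluted in water was dropper-applied into floodwater immediately, at 7.5 g active ingredient per 10 ares; duplicates, scored at 14 days.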

Echinochloa crus-galli [14] = assay: Test Example 4: herbicidal effect test by stem and leaf treatment in upland field; conditions: Echinochloa crus-galli; 120 g per 10 ares; sprayed seven days after sowing, upland soil; 14 days after application; read-out: weed inhibition rate

CC(C)C12C=CC(C)(O1)C(OCc1ccccn1)C2 (stereo not shown) [3-755, 2-[(1-methyl-4-isopropyl-7-oxabicyclo[2.2.1]hept-5-en-2-yl)oxymethyl]pyridine]
≥ 80%: pest or weed control at 1200 g/ha [1] | pest or weed control at 1200 g/ha (Scirpus juncoides [2]) | inhibition at 75 g/ha [3] | inhibition at 75 g/ha (Echinochloa crus-galli [4]) | inhibition at 75 g/ha (Digitaria ciliaris [5]) | inhibition at 1200 g/ha (Digitaria ciliaris [6]) | inhibition at 75 g/ha (Echinochloa crus-galli [7]) | inhibition at 75 g/ha (Digitaria ciliaris [8]) | inhibition at 1200 g/ha (Echinochloa crus-galli [9]) | inhibition at 1200 g/ha (Digitaria ciliaris [10]) | inhibition at 1200 g/ha [11] | inhibition at 1200 g/ha (Scirpus juncoides [12]) | inhibition at 75 g/ha [13] | inhibition at 1200 g/ha (Echinochloa crus-galli [14])

CC(C)C12CC(OCc3ccccn3)C(C)(CC1Cl)O2 (stereo not shown) [1-1320, 2-[(5-chloro-4-isopropyl-1-methyl-7-oxabicyclo[2.2.1]heptan-2-yl)oxymethyl]pyridine]
≥ 80%: pest or weed control at 1200 g/ha [1] | pest or weed control at 1200 g/ha (Scirpus juncoides [2]) | inhibition at 75 g/ha [3] | inhibition at 75 g/ha (Echinochloa crus-galli [4]) | inhibition at 75 g/ha (Digitaria ciliaris [5]) | inhibition at 1200 g/ha (Digitaria ciliaris [6]) | inhibition at 75 g/ha (Echinochloa crus-galli [7]) | inhibition at 75 g/ha (Digitaria ciliaris [8]) | inhibition at 1200 g/ha (Echinochloa crus-galli [9]) | inhibition at 1200 g/ha (Digitaria ciliaris [10]) | inhibition at 1200 g/ha [11] | inhibition at 1200 g/ha (Scirpus juncoides [12]) | inhibition at 75 g/ha [13] | inhibition at 1200 g/ha (Echinochloa crus-galli [14])

CC(C)C12CC(OCc3ccccc3Br)C(C)(CC1I)O2 (stereo not shown) [1-1427, 5-[(2-bromophenyl)methoxy]-2-iodo-1-isopropyl-4-methyl-7-oxabicyclo[2.2.1]heptane]
≥ 80%: pest or weed control at 1200 g/ha [1] | pest or weed control at 1200 g/ha (Scirpus juncoides [2]) | inhibition at 75 g/ha [3] | inhibition at 75 g/ha (Echinochloa crus-galli [4]) | inhibition at 75 g/ha (Digitaria ciliaris [5]) | inhibition at 1200 g/ha (Digitaria ciliaris [6]) | inhibition at 75 g/ha (Echinochloa crus-galli [7]) | inhibition at 75 g/ha (Digitaria ciliaris [8]) | inhibition at 1200 g/ha (Echinochloa crus-galli [9]) | inhibition at 1200 g/ha (Digitaria ciliaris [10]) | inhibition at 1200 g/ha [11] | inhibition at 1200 g/ha (Scirpus juncoides [12]) | inhibition at 75 g/ha [13] | inhibition at 1200 g/ha (Echinochloa crus-galli [14])

CC(C)=CCO[C@@H]1C[C@]2(C(C)C)O[C@@]1(C)C[C@@H]2I [1-732, (1R,2S,4S,5R)-2-iodo-1-isopropyl-4-methyl-5-(3-methylbut-2-enoxy)-7-oxabicyclo[2.2.1]heptane]
≥ 80%: pest or weed control at 1200 g/ha [1] | pest or weed control at 1200 g/ha (Scirpus juncoides [2]) | inhibition at 75 g/ha [3] | inhibition at 75 g/ha (Echinochloa crus-galli [4]) | inhibition at 75 g/ha (Digitaria ciliaris [5]) | inhibition at 1200 g/ha (Digitaria ciliaris [6]) | inhibition at 75 g/ha (Echinochloa crus-galli [7]) | inhibition at 75 g/ha (Digitaria ciliaris [8]) | inhibition at 1200 g/ha (Echinochloa crus-galli [9]) | inhibition at 1200 g/ha (Digitaria ciliaris [10]) | inhibition at 1200 g/ha [11] | inhibition at 1200 g/ha (Scirpus juncoides [12]) | inhibition at 75 g/ha [13] | inhibition at 1200 g/ha (Echinochloa crus-galli [14])

Cc1ccccc1COC1CC2(C(C)C)OC1(C)CC2I (stereo not shown) [1-1409, 5-iodo-1-methyl-2-[(2-methylphenyl)methoxy]-4-isopropyl-7-oxabicyclo[2.2.1]heptane]
≥ 80%: pest or weed control at 1200 g/ha [1] | pest or weed control at 1200 g/ha (Scirpus juncoides [2]) | inhibition at 75 g/ha [3] | inhibition at 75 g/ha (Echinochloa crus-galli [4]) | inhibition at 75 g/ha (Digitaria ciliaris [5]) | inhibition at 1200 g/ha (Digitaria ciliaris [6]) | inhibition at 75 g/ha (Echinochloa crus-galli [7]) | inhibition at 75 g/ha (Digitaria ciliaris [8]) | inhibition at 1200 g/ha (Echinochloa crus-galli [9]) | inhibition at 1200 g/ha (Digitaria ciliaris [10]) | inhibition at 1200 g/ha [11] | inhibition at 1200 g/ha (Scirpus juncoides [12]) | inhibition at 75 g/ha [13] | inhibition at 1200 g/ha (Echinochloa crus-galli [14])
